Assay [1] deals with T1, β1c subunit of isolated human 20S proteasome (Homo sapiens, UniProt P28072).
T1 construct: purchased Enzo Life Sciences
In words: Proteasome inhibition assay (20 S Proteasome Assay Kit, Z‐LLE‐AMC). In kind it is biochemical. As to conditions: c = 1 µM, n=1; read-out: Inhibition cCP β1. The procedure: (§1) Proteasome inhibition assay. […] The 20 S Proteasome Assay Kit for Drug Discovery was used according to the supplier's protocol using Suc‐LLVY‐AMC (β5), Bz‐VGR‐AMC (β2) or Z‐LLE‐AMC (β1) as substrates (Enzo Life Sciences). Single point measurements of residual activity of proteasome activity were performed at a final concentration of 100 nM (n=3, β5c, β5i) or 1 μM (n=1, β1c, β2c, β5c, β5i, SI chapter 2a, Table S1). […] Inhibitors were prepared in 2‐fold concentration (cfinal=100 nM) and added to proteasomes (mfinal=200 ng/well). After 30 min incubation, substrate was added (cfinal=100 μM), incubated for 60 minutes and fluorescence was read using a Tecan M1000 microplate reader. […] IC50 values were determined from technical duplicates as mean value of three independent experiments.

The target of assay [2] is T2, β2c subunit of isolated human 20S proteasome (Homo sapiens, UniProt Q99436).
T2 construct: purchased Enzo Life Sciences
The experiment in a line: Proteasome inhibition assay (20 S Proteasome Assay Kit, Bz‐VGR‐AMC). In kind it is biochemical. As to conditions: c = 1 µM, n=1; read-out: Inhibition cCP β2. The procedure: Proteasome inhibition assay. Bortezomib (Selleckchem) and carfilzomib (MedChemExpress) were purchased and used without further purification. The 20 S Proteasome Assay Kit for Drug Discovery was used according to the supplier's protocol using Suc‐LLVY‐AMC (β5), Bz‐VGR‐AMC (β2) or Z‐LLE‐AMC (β1) as substrates (Enzo Life Sciences). Single point measurements of residual activity of proteasome activity were performed at a final concentration of 100 nM (n=3, β5c, β5i) or 1 μM (n=1, β1c, β2c, β5c, β5i, SI chapter 2a, Table S1). […] Inhibitors were prepared in 2‐fold concentration (cfinal=100 nM) and added to proteasomes (mfinal=200 ng/well). After 30 min incubation, substrate was added (cfinal=100 μM), incubated for 60 minutes and fluorescence was read using a Tecan M1000 microplate reader. Dose‐response curves were fitted to the equation Y=100/(1+10^((L°^gIC50−X)*HillSl°^pe)) using GraphPad Prism 7.02. IC50 values were determined from technical duplicates as mean value of three independent experiments.

In assay [3] the test system is MV4‐11 cells. In words: Cell viability endpoint assay (Celltiter Blue, 72 h). In kind it is cell-based. The following applies: Homo sapiens, MV4-11, mean±SD from two independent experiments. The procedure: Cell lines. MV4‐11 (ACC 102), Jurkat (ACC 282) and THP‐1 (ACC 16) cells were obtained from DSMZ and maintained at 37 °C and 5 % CO2 at densities between 0.2–1×10^6 cells per mL in RMPI‐1640 medium supplemented with 10 % FBS, L‐glutamine (2 mM) and penicillin/streptomycin.
Cell viability endpoint assay. For the determination of cytotoxicity of proteasome inhibitors 50.000 cells per well were plated in 90 μl RPMI‐1640 medium supplemented with 0.1 % FBS and incubated overnight at 37 °C and 5 % CO2. Inhibitors were serially diluted in RPMI‐1640 medium as 10‐fold stocks and added to cells giving the final concentration (1 nM to 10 μM, Figure S2–S4) and incubated for 72 h at 37 °C and 5 % CO2. Cell viability was determined using the Celltiter Blue assay (Promega) by adding 20 μl of reagent, incubation for 120 minutes at 37 °C and 5 % CO2 and fluorescent read‐out using a Tecan M1000 microplate reader. Dose‐response curves were fitted to the equation “Y=Bottom+(Top‐Bottom)/(1+10^(X−L°^gIC50))” using GraphPad Prism 7.02. IC50 values are determined from technical triplicates as mean value of two independent experiments. Standard deviations (Table S1) as well as dose response curves (SI chapter 2b) are given in the supplementary information.

The target in assay [4] is T3, β5c subunit of isolated human 20S proteasome (Homo sapiens, UniProt P28074).
T3 construct: purchased Enzo Life Sciences
The experiment in a line: Proteasome inhibition assay (20 S Proteasome Assay Kit, Suc‐LLVY‐AMC). In kind it is biochemical. The following applies: for inhibition at 1 µM: c = 1 µM, n=1, read-out: Inhibition cCP β5; for inhibition at 0.1 µM: c=100 nM, read-out: Rel. Inhibition β5c. The procedure: as §1

In assay [5] the target is T4, β5i subunit of isolated human 20S proteasome (Homo sapiens, UniProt P28062).
T4 construct: purchased Enzo Life Sciences
The assay is described as above. The class given is biochemical. As to conditions: for inhibition at 1 µM: c = 1 µM, n=1, read-out: Inhibition iCP β5; for inhibition at 0.1 µM: c=100 nM, read-out: Rel. Inhibition β5i. The procedure: as §1

We go through 10 compounds from publication PMC6916368, “Cell‐Based Optimization of Covalent Reversible Ketoamide Inhibitors Bridging the Unprimed to the Primed Site of the Proteasome β5 Subunit” (Chemmedchem, 2019).

Peptide text beside a SMILES is read from it. * marks the point of attachment. Cbz = O=C(OCc1ccccc1)*; OtBu = CC(C)(C)O*

In general, inhibition refers to the relative decrease from the control value, in per cent. A word on the IC50: it is the concentration that gives 50% inhibition. High values mean a need for much substance, low ones inhibition by little substance. In the case of `Cc1cc(C)c(Oc2ccccc2)cc1NC(=O)C(=O)[C@H](CC(C)C)NC(=O)[C@H](CC(C)C)NC(=O)[C@H](CC(C)C)NC(=O)OCc1ccccc1` [Compound 11, Benzyl((S)‐1‐(((S)‐1‐(((S)‐1‐((2,4‐dimethyl‐5‐phenoxyphenyl)amino)‐5‐methyl‐1,2‐dioxo‐hexan‐3‐yl)amino)‐4‐methyl‐1‐oxopentan‐2‐yl)amino)‐4‐methyl‐1‐oxopentan‐2‐yl)carbama‐te], the inhibition at 1 µM in assay [1] is -10%; in assay [2], 10%; in assay [4], 59%; in assay [5] it was 10%. In addition, the concentration for half-maximal inhibition (IC50) in assay [3] came to 19 ± 1 nM. For the same compound, the inhibition at 0.1 µM came out at 46% in assay [4] and 12% in assay [5].

For `Cc1ccc(Oc2ccccc2)cc1NC(=O)C(=O)[C@H](CC(C)C)NC(=O)[C@H](CC(C)C)NC(=O)[C@H](CC(C)C)NC(=O)OCc1ccccc1` [Compound 15, Benzyl((S)‐4‐methyl‐1‐(((S)‐4‐methyl‐1‐(((S)‐5‐methyl‐1‐((2‐methyl‐5‐phenoxyphenyl)‐amino)‐1,2‐dioxohexan‐3‐yl)amino)‐1‐oxopentan‐2‐yl)amino)‐1‐oxopentan‐2‐yl)carbamate], the inhibition at 1 µM in assay [1] was -2%; in assay [2], 9%; in assay [4] it was 75%; in assay [5] it was 48%. In addition, in assay [3], it took 16 ± 1 nM to reach half-maximal inhibition (IC50). Moreover, the results for the inhibition at 0.1 µM in assay [4] and in assay [5] were 26% and 19%, respectively.

For `Cc1cc(C)c(Oc2ccccc2)cc1NC(=O)C(=O)[C@H](CC(C)C)NC(=O)[C@H](CC(=O)OC(C)(C)C)NC(=O)[C@H](CC(C)C)NC(=O)c1cc(Cl)ccc1Cl` [Compound 29, tert ‐Butyl (S)‐3‐((S)‐2‐(2,5‐dichlorobenzamido)‐4‐methylpentanamido)‐4‐(((S)‐1‐((2,4‐dimethyl‐5‐phenoxyphenyl)amino)‐5‐methyl‐1,2‐dioxohexan‐3‐yl)amino)‐4‐oxobuta‐noate], the inhibition at 1 µM in assay [1] is -19%; in assay [2] it was -4%; in assay [4], 53%; in assay [5], -1%. This compound also returned an IC50 in assay [3] of 58 ± 10 nM. In addition, the inhibition at 0.1 µM in assay [4] was 26%; in assay [5] it was 8%.

On to `Cc1ccc(NC(=O)C(=O)[C@H](CC(C)C)NC(=O)[C@H](CC(C)C)NC(=O)[C@H](CC(C)C)NC(=O)c2cc(Cl)ccc2Cl)c(C)c1` [Compound 26, 2,5‐Dichloro‐N‐((S)‐1‐(((S)‐1‐(((S)‐1‐((2,4‐dimethylphenyl)amino)‐5‐methyl‐1,2‐dioxohexan‐3‐yl)amino)‐4‐methyl‐1‐oxopentan‐2‐yl)amino)‐4‐methyl‐1‐oxopentan‐2‐yl)‐benzamide], for which the inhibition at 1 µM in assay [1] was -38%; in assay [2] it was 17%; in assay [4], 51%; in assay [5], 24%. The same compound had a half-inhibitory concentration (IC50) in assay [3] of 25 ± 5 nM. The results for the inhibition at 0.1 µM in assay [4] and in assay [5] were 25% and 4%, respectively.

Turning to `Cc1ccc(NC(=O)C(=O)[C@H](CC(C)C)NC(=O)[C@H](CC(C)C)NC(=O)[C@H](CC(C)C)NC(=O)OCc2ccccc2)c(C)c1Oc1ccccc1` [Compound 12, Benzyl((S)‐1‐(((S)‐1‐(((S)‐1‐((2,4‐dimethyl‐3‐phenoxyphenyl)amino)‐5‐methyl‐1,2‐dioxo‐hexan‐3‐yl)amino)‐4‐methyl‐1‐oxopentan‐2‐yl)amino)‐4‐methyl‐1‐oxopentan‐2‐yl)carbama‐te], the inhibition at 1 µM was -33% in assay [1], 4% in assay [2], 53% in assay [4] and 16% in assay [5]. Moreover, the 50% inhibitory concentration (IC50) in assay [3] is 26 ± 8 nM. The inhibition at 0.1 µM in assay [4] stood at 20%; in assay [5], 9%.

Regarding `Cc1cc(C)c(Oc2ccccc2)cc1NC(=O)C(=O)[C@H](CC(C)C)NC(=O)[C@H](CC(=O)OC(C)(C)C)NC(=O)[C@H](CC(C)C)NC(=O)OCc1ccccc1` [Compound 21, tert ‐Butyl(S)‐3‐((S)‐2‐(((benzyloxy)carbonyl)amino)‐4‐methylpentanamido)‐4‐(((S)‐1‐((2,4‐dime‐thyl‐5‐phenoxyphenyl)amino)‐5‐methyl‐1,2‐dioxohexan‐3‐yl)amino)‐4‐oxobutanoate], the inhibition at 1 µM was -4% in assay [1], 11% in assay [2], 52% in assay [4] and 17% in assay [5]. Moreover, 297 ± 27 nM corresponded to half-maximal inhibition in assay [3] (IC50). Further, the inhibition at 0.1 µM in assay [4] amounted to 33%.

In the case of `CC(C)C[C@H](NC(=O)OCc1ccccc1)C(=O)N[C@@H](CC(C)C)C(=O)N[C@@H](CC(C)C)C(=O)C(=O)Nc1ccccc1Oc1ccccc1` [Compound 8, Benzyl‐((S)‐4‐methyl‐1‐(((S)‐4‐methyl‐1‐(((S)‐5‐methyl‐1,2‐dioxo‐1‐((2‐phenoxyphenyl)‐amino)hexan‐3‐yl)amino)‐1‐oxopentan‐2‐yl)amino)‐1‐oxopentan‐2‐yl)carbamate], the inhibition at 1 µM was -7% in assay [1], -4% in assay [2], 32% in assay [4] and 7% in assay [5]. Also, in assay [3], inhibition was half-maximal at 203 ± 22 nM (IC50). The inhibition at 0.1 µM came to 12% in assay [4] and 8% in assay [5].

Consider `Cc1ccc(NC(=O)C(=O)[C@H](CC(C)C)NC(=O)[C@H](CC(C)C)NC(=O)[C@H](CC(C)C)NC(=O)OCc2ccccc2)cc1Oc1ccccc1` [Compound 13, Benzyl((S)‐4‐methyl‐1‐(((S)‐4‐methyl‐1‐(((S)‐5‐methyl‐1‐((4‐methyl‐3‐phenoxyphenyl)‐amino)‐1,2‐dioxohexan‐3‐yl)amino)‐1‐oxopentan‐2‐yl)amino)‐1‐oxopentan‐2‐yl)carbamate], for which the inhibition at 1 µM was -4% in assay [1], 4% in assay [2], 69% in assay [4] and 15% in assay [5]. In addition, the midpoint of inhibition in assay [3], the IC50, lay at 23 ± 2 nM. Further, the inhibition at 0.1 µM in assay [4] was 49%; in assay [5] it was 28%.

As to `CC(C)C[C@H](NC(=O)OCc1ccccc1)C(=O)N[C@@H](CC(=O)OC(C)(C)C)C(=O)N[C@@H](CC(C)C)C(=O)C(=O)Nc1ccccc1` [Compound 16, tert ‐Butyl‐(S)‐3‐((S)‐2‐(((benzyloxy)carbonyl)amino)‐4‐methylpentanamido)‐4‐(((S)‐5‐methyl‐1,2‐dioxo‐1‐(phenylamino)hexan‐3‐yl)amino)‐4‐oxobutanoate], the inhibition at 1 µM in assay [1] is 12%; in assay [2] it was -8%; in assay [4], 91%; in assay [5], 76%. Moreover, the IC50 in assay [3] stood at 46 ± 6 nM. In addition, the inhibition at 0.1 µM in assay [4] was 57%; in assay [5], 48%.

Regarding `CC(C)C[C@@H](C=O)NC(=O)[C@H](CC(=O)OC(C)(C)C)NC(=O)[C@H](CC(C)C)NC(=O)OCc1ccccc1` [Compound 5, BSc2118, reference compound] (Cbz-Leu-Asp(OtBu)-Leu-aldehyde), the inhibition at 1 µM in assay [1] was 16%; in assay [2] it was 4%; in assay [4] it was 90%; in assay [5], 72%. In addition, in assay [3], the IC50 came to 123 ± 12 nM. Besides, the inhibition at 0.1 µM in assay [4] was found to be 54%; in assay [5], 11%.
